From patent US20220274967A1, “BCAT MODULATION” (Icagen, LLC, priority 2019, published 2022)
pIC50: −log10 of the molar value.

Assays:
[1] = biological target: T1, BCAT2 (Homo sapiens, UniProt O15382); assay: BCAT2 enzyme inhibition (human); type: biochemical
T1 sequence (O15382 28-392): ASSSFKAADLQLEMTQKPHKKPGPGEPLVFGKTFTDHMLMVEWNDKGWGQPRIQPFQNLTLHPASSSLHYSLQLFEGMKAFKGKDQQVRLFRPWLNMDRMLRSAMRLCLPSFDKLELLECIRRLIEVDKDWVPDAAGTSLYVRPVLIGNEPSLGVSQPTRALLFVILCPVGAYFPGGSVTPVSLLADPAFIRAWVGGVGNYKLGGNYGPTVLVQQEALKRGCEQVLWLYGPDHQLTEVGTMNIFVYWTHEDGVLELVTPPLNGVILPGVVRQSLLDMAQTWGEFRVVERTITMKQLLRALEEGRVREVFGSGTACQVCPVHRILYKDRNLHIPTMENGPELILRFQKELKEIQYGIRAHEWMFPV
In short: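 Cell-free coupled fluorescent assay: human BCATm converts branched-chain amino acids and α-ketoglutarate to L-glutamate, which L-glutamate oxidase and HRP link to resorufin formation from Amplex Red; activity taken as reduced glutamate signal.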

[2] = biological target: T2, BCAT1 (Homo sapiens, UniProt P54687); assay: BCAT1 enzyme inhibition (human), Glutamate Glo luminescence; type: biochemical
T2 sequence (P54687 1-386): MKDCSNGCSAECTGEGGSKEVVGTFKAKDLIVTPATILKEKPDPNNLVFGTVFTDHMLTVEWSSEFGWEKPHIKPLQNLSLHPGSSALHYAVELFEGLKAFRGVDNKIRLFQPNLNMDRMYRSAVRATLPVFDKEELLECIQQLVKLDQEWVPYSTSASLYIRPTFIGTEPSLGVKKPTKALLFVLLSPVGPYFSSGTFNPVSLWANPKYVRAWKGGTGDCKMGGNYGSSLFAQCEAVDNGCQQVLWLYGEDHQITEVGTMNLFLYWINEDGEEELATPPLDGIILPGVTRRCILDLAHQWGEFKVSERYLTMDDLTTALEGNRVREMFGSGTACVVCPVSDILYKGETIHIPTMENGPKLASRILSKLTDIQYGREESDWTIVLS
In short: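 BCAT1 enzyme (0.06 ug/ml final) was preincubated with compound (3-0.0001 μM, 0.3% DMSO) for 10 or 60 min at room temperature in 50 mM Tris/0.05% TWEEN-20. The reaction then ran 10 min with 300 μM L-leucine and 250 μM alpha-ketoglutaric acid, was acid-quenched, and glutamate was read by luminescence. IC50 came from a 4-parameter fit, normalized to 10 μM VS558CSA inhibition.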

SMILES	pIC50 [1]	pIC50 [2]
COC(=O)c1ccc2c(c1)nc(-c1ccccn1)n2[C@@H]1CCC[C@H](NC(=O)c2ccc(Br)s2)C1 [Compound 109]	6.30 to 7.00	≤ 6.00
CNC(=O)c1ccc2c(c1)nc(-c1cccc(F)c1)n2[C@H]1CCC[C@@H](NC(=O)c2ccc(Br)s2)C1 [Compound 154]	> 7.00	≤ 6.00
CNC(=O)c1cc2nc(-c3ccccn3)n([C@H]3CCC[C@@H](NC(=O)c4ccc(Br)s4)C3)c2cc1F [Compound 155]	> 7.00	6.30 to 7.00
CNC(=O)c1ccc2c(c1)nc(-c1cccc(F)c1O)n2[C@H]1CCC[C@@H](NC(=O)c2ccc(Br)s2)C1 [Compound 163]	> 7.00	≤ 6.00
CNC(=O)c1ccc2c(c1)nc(-c1c(O)cccc1F)n2[C@H]1CCC[C@@H](NC(=O)c2ccc(Br)s2)C1 [Compound 184]	> 7.00	6.30 to 7.00
CNC(=O)c1cc2nc(-c3ccccc3F)n([C@H]3CCC[C@@H](NC(=O)c4ccc(Br)s4)C3)c2cc1F [Compound 207]	> 7.00	> 7.00
CNC(=O)c1cc2nc(-c3ccccc3C)n([C@H]3CCC[C@@H](NC(=O)c4ccc(Br)s4)C3)c2cc1F [Compound 208]	> 7.00	6.30 to 7.00
COC(=O)c1cc2nc(-c3ccccn3)n([C@@H]3CCC[C@H](NC(=O)c4ccc(Br)s4)C3)c2cn1 [Compound 291]	> 7.00	6.30 to 7.00
CNC(=O)c1cc2nc(-c3ccccn3)n([C@H]3CCC[C@@H](NC(=O)c4ccc(Br)s4)C3)c2cn1 [Compound 292]	> 7.00	6.30 to 7.00

Further lines, results first:

pIC50 [1]	pIC50 [2]	SMILES
6.30 to 7.00	≤ 6.00	CNC(=O)c1ccc2c(c1)nc(-c1ccccn1)n2[C@@H]1CCC[C@H](NC(=O)c2ccc(C#N)s2)C1 [Compound 112]
> 7.00	≤ 6.00	CNC(=O)c1ccc2c(c1)nc(-c1ccccc1C)n2[C@H]1CCC[C@@H](NC(=O)c2ccc(C#N)s2)C1 [Compound 134]
> 7.00	≤ 6.00	CNC(=O)c1ccc2c(c1)nc(-c1ccccc1C)n2[C@H]1CCC[C@@H](NC(=O)c2ccc(Br)s2)C1 [Compound 135]
> 7.00	6.30 to 7.00	CNC(=O)c1ccc2c(c1)nc(-c1ccccc1C#N)n2[C@H]1CCC[C@@H](NC(=O)c2ccc(Br)s2)C1 [Compound 136]
> 7.00	> 7.00	CNC(=O)c1ccc2c(c1)nc(-c1ccccc1C#N)n2[C@H]1CCC[C@@H](NC(=O)c2ccc(Br)s2)C1 [Compound 137]
> 7.00	6.00 to 6.30	CNC(=O)c1ccc2c(c1)nc(-c1ccccc1C#N)n2[C@H]1CCC[C@@H](NC(=O)c2ccc(C#N)s2)C1 [Compound 138]
> 7.00	6.30 to 7.00	CNC(=O)c1ccc2c(c1)nc(-c1ccccc1C#N)n2[C@H]1CCC[C@@H](NC(=O)c2ccc(C#N)s2)C1 [Compound 139]
> 7.00	6.30 to 7.00	CNC(=O)c1ccc2c(c1)nc(-c1ccccc1F)n2[C@H]1CCC[C@@H](NC(=O)c2ccc(Br)s2)C1 [Compound 145]
> 7.00	6.00 to 6.30	C#Cc1ccccc1-c1nc2cc(C(=O)NC)ccc2n1[C@H]1CCC[C@@H](NC(=O)c2ccc(Br)s2)C1 [Compound 151]
> 7.00	> 7.00	CNC(=O)c1cc2nc(-c3ccccc3C#N)n([C@H]3CCC[C@@H](NC(=O)c4ccc(Br)s4)C3)c2cc1F [Compound 157]
> 7.00	6.30 to 7.00	CNC(=O)c1ccc2c(c1)nc(-c1ccccc1C=O)n2[C@H]1CCC[C@@H](NC(=O)c2ccc(Br)s2)C1 [Compound 161]
